In patent US20250170124A1, “METHODS OF DIAGNOSING AND TREATING NEURODEGENERATIVE DISEASES” (The General Hospital Corporation, priority 2022, published 2025):
Like-named read-outs stand apart in the source and are kept apart here.

Assays:
[1] = tested on: PGL3 5′UTR; assay: Secondary (counterscreen) luciferase assay in H4-C cells, IRE stem-loop removed; format: cell-based, human; details: versus SNCA 5′UTR
[2] = tested on: alpha-synuclein 5′-UTR IRE (SNCA 5′UTR); assay: Primary screen/retest: ASYN 5′-UTR IRE-driven luciferase expression in H4 cells; format: cell-based, human; details: 48 h
[3] = tested on: alpha-synuclein; assay: ELISA secondary screen for alpha-synuclein in SH-SY5Y cells; format: cell-based, human; design: Decrease syn(%) SHSY5Y cells: unit of the concentration uncertain; details: for Decrease αsyn(%) SHSY5Y cells: Table 2; for Decrease syn(%) SHSY5Y cells: Table 3
Method: FIG. 2 illustrates the results of ELISA experiments with compound 10 in SH-SY5Y cells. […]
FIG. 18 illustrates alpha Synuclein ELISA (Invitrogen) measurements from SHSY5 undifferentiated neurons treated with the indicated doses (triplicate wells) of compounds 2, 13, 11, 14, 15, and 16) for 48 h.
A human ASYN ELISA kit was utilized for all ELISA experiments (Invitrogen alpha-synuclein ELISA kit KHB0061) and the kit protocol was followed.
1) Plate SH-SY5Y […] cells (Corning, 3570) at 10,000 cells/well in 50 μL phenol red free media (phenol red-free DMEM with 4.5 g/L D-glucose [Lonza, 12-917F] supplemented with 10% FBS [Lonza, 14-503E], 200 μM L-glutamine [Lonza, 17-605E], 100 μM penstrep [Lonza, 17-602E] and 200 μg/mL geneticin [Invitrogen, 10131-027]).
2) Lid plates, then incubate cells for 24 hours at 37° C., 5% CO2, 95% humidity in a tissue culture incubator.
3) Pin 100 nL of each compound into the assay plates spanning a final concentration range from 100-0.006 μM.
4) Incubate plates for 48 h at 37° C., 5% CO2, 95% humidity. Following incubation, add 5 μL of Alamar blue solution per well and allow to incubate for 1 h at 37° C., 5% CO2, 95% humidity.
5) Read Alamar blue fluorescence using a Thermo Varioskan (570 nm excitation, 585 nm emission). Remove cell media and add 30 μL cell lysis solution with protease inhibitor (G Biosciences, 786-331; 10 μL/mL).
6) Place plates on a plate shaker for 1 h, before removing 20 μL lysate. Transfer cell lysates to 500 μL Eppendorf tubes and centrifuge (Eppendorf Centrifuge 5417C) for 10 min at 13,000 rpm.
7) Add 12 μL of the cell supernatant to 48 μL of standard diluent buffer (1:5). Add these samples to ELISA plate wells. Prepare ASYN standard curve wells as described in the kit manual.
8) Add 50 μL of anti-α-Synuclein (Detection Antibody) solution to each well, tapping the plate to mix. Cover the plate with a tape seal and incubate for 3 h at RT.
9) Wash wells four times with wash buffer using a multichannel pipette and add 100 μL of anti-rabbit IgG-HRP antibody solution to each well. Cover the plate and incubate for 30 min at RT. Wash wells four times with wash buffer and add 100 μL of Stabilized Chromogen to each well. Seal the plate and incubate in the dark at RT for 30 min.
10) Finally, add 100 μL of Stop Solution to each well, tapping the plate to mix, and read absorbance at 450 nm using an Envision plate reader (Perkin Elmer).

[4] = tested on: PrP-5′UTR (prion protein IRE); format: cell-based, human; details: versus SNCA 5′UTR
[5] = tested on: α-Synuclein; assay: Western blots of α-syn in iPSC derived DA neuron lysates; format: cell-based, human; details: for inhibition of α-Synuclein protein expression versus β-Syn, γ-Syn, Ferritin, APP and Prion proteins: 1 μM, normalized to β-Actin
[6] = tested on: α-Synuclein; assay: Decrease of α-syn in iPSC derived DA neurons; format: cell-based, human; design: Decrease syn(%) DA neurons: dose or concentration left out as unconfirmed; details: for Decrease αsyn(%) DA neurons: Table 2; for Decrease syn(%) DA neurons: Table 3
[7] = tested on: α-Syn; assay: Decrease of α-syn in Triple SNCA cortical neurons; details: concentration not given; for Decrease αsyn(%) X3 SNCA neurons: Table 2
[8] = tested on: SNCA IRE; assay: Spinach fluorescent assay, SNCA IRE fluorescence sensor R7
[9] = Homo sapiens, Table 2, H4 cells, luciferase, read-out: IC50/μM (SNCA 5′UTR)
[10] = Homo sapiens, Table 3, H4 cells, luciferase, read-out: IC50/M (SNCA 5′UTR)
[11] = 10 μM and 1 μM compound, 72 h, β-actin standardized, N=3
[12] = Homo sapiens, read-out: IC50/M (SNCA 5′UTR)
[13] = Homo sapiens, read-out: IC50/μM (SNCA 5′UTR)

SMILES: CCC1=Nc2cc(C(=O)NCCCOC)ccc2Sc2ccccc21 [Compound 7, 11-ethyl-N-(3-methoxypropyl)dibenzo[b,f][1,4]thiazepine-8-carboxamide]
- Selectivity PGL3 5′UTR ([1]; Table 2): 68-fold
- IC50 [2, 9]: 0.127 µM
- Decrease αsyn(%) SHSY5Y cells ([3]; @ 1 μM): 30-60 @ 1%
- Selectivity PrP-5′UTR ([4]; Table 2): 127-fold

SMILES: Cc1cc(C)cc(Nc2nc3ccc(C)cc3n3cnnc23)c1 [Compound 15, N-(3,5-dimethylphenyl)-8-methyl[1,2,4]triazolo[4,3-a]quinoxalin-4-amine]
- Selectivity PGL3 5′UTR ([1]; Table 3): 43-fold
- IC50 [2, 10]: 2.8 µM
- Decrease syn(%) SHSY5Y cells ([3]; @ 1 µM): 25-50 @ 1M^ %
- Selectivity PrP-5′UTR ([4]; Table 3): 18-fold

SMILES: COc1cccc(N2CCN(C(=O)c3ccc(C[S+]([O-])c4ccc(C)cc4)o3)CC2)c1 (centres unmarked) [Compound 1, (4-(3-methoxyphenyl)piperazin-1-yl)(5-((p-tolylsulfinyl)methyl)furan-2-yl)methanone]
- Selectivity PGL3 5′UTR ([1]; Table 2): 58-fold
- IC50 [2, 9]: 0.1 µM
- Decrease αsyn(%) SHSY5Y cells ([3]; @ 1 μM): 14-28 @ 1%
- Selectivity PrP-5′UTR ([4]; Table 2): 126-fold

SMILES: O=C(c1ccc(C[S+]([O-])c2ccccc2Cl)o1)N1CCN(c2ccccc2)CC1 (centres unmarked) [Compound 6, (5-(((2-chlorophenyl)sulfinyl)methyl)furan-2-yl)(4-phenylpiperazin-1-yl)methanone]
- Selectivity PGL3 5′UTR ([1]; Table 2): 80-fold
- IC50 [2, 9]: 0.1 µM
- Decrease αsyn(%) SHSY5Y cells ([3]; @ 0.1-1 μM): 21-42 @ 0.1-1%
- Selectivity PrP-5′UTR ([4]; Table 2): Inc.

SMILES: O=C(c1ccc(C[S+]([O-])c2ccccc2Cl)o1)N1CCN(c2ccccc2)CC1 (centres unmarked) [Compound 12, 1-(5-{[(2-Chlorophenyl)sulfinyl]methyl}-2-furoyl)-4-phenylpiperazine]
- Selectivity PGL3 5′UTR ([1]; Table 3): 80-fold
- IC50 [2, 10]: 0.1 µM
- Decrease syn(%) SHSY5Y cells ([3]; @ 0.1-1M): 21-42 @ 0.1-1M %
- Selectivity PrP-5′UTR ([4]; Table 3): Inc.

SMILES: COC(=O)c1c(NC(=O)c2ccc([N+](=O)[O-])o2)sc2c1CCN(C(C)C)C2 [Compound 9, methyl 6-isopropyl-2-(5-nitrofuran-2-carboxamido)-4,5,6,7-tetrahydrothieno[2,3-c]pyridine-3-carboxylate]
- Selectivity PGL3 5′UTR ([1]; Table 2): 1,200-fold
- Selectivity PGL3 5′UTR ([1]; Table 3): 1,200-fold
- inhibition of α-Synuclein protein expression versus β-Syn, γ-Syn, Ferritin, APP and Prion proteins ([5]; 72 h): selectively inhibit
- α-syn levels (Western blot) [5, 11]: reduced
- Decrease αsyn(%) DA neurons ([6]; @ 1 μM): 90 @ 1 μM %
- Decrease syn(%) DA neurons [6]: 90 @ 1M %
- IC50 [2, 12]: 0.1 µM
- IC50 [2, 13]: 0.1 µM

SMILES: CN1CC[C@]2(C)c3cc(OC(=O)Nc4ccccc4)ccc3N(C)[C@H]12 [Posiphen, reference compound]
- α-syn levels (Western blot) [5]: reduced
- Decrease αsyn(%) DA neurons ([6]; concentration not given): 25%
- Decrease syn(%) DA neurons ([6]; concentration not given): 25%
- IC50 ([2]; Table 2, H4 cells, luciferase, read-out: IC50/μM (SNCA 5′UTR)): 10 µM
- Decrease αsyn(%) SHSY5Y cells ([3]; @10 μM): 25-50 @10%
- Decrease syn(%) SHSY5Y cells ([3]; @10 µM): 25-50 @10M ^ %
- Decrease αsyn(%) X3 SNCA neurons [7]: 5%
- Decrease syn(%) X3 SNCA neuron ([7]; Table 3): 5%
- binding to SNCA IRE (fluorescence of sensor R7) [8]: no measurable effect or quenching effect

SMILES: COC(=O)C1CC23C=CCN4CCC5(c6ccccc6NC15C2C)C43 (centres unmarked) [Compound 3, methyl 14-methyl-4,5,11,12-tetrahydro-1H,3a^1H,6H-3a,5a-methanoindolizino[8,1-cd]carbazole-5-carboxylate]
- Selectivity PGL3 5′UTR ([1]; Table 2): 31-fold
- Selectivity PGL3 5′UTR ([1]; Table 3): 31-fold
- inhibition of α-Synuclein protein expression versus β-Syn, γ-Syn, Ferritin, APP and Prion proteins ([5]; 72 h): selectively inhibit
- α-syn levels (Western blot) [5, 11]: reduced
- Decrease αsyn(%) DA neurons ([6]; @ 1 μM): 60 @ 1 μM %
- Decrease syn(%) DA neurons [6]: 60 @ 1M %
- IC50 [2, 12]: 0.134 µM
- IC50 [2, 13]: 0.134 µM
- Decrease αsyn(%) SHSY5Y cells ([3]; @ 1-10 μM): 15-19 @ 1-10%
- Decrease syn(%) SHSY5Y cells ([3]; @ 1-10M): 15-19 @ 1-10M %
- Selectivity PrP-5′UTR ([4]; Table 2): 17-fold
- Selectivity PrP-5′UTR ([4]; Table 3): 17-fold
- Decrease αsyn(%) X3 SNCA neurons [7]: 50%

SMILES: CCOC(=O)c1[nH]c(C)c(C(=O)c2cc(F)ccc2F)c1C [Compound 8, ethyl 4-(2,5-difluorobenzoyl)-3,5-dimethyl-1H-pyrrole-2-carboxylate]
- Selectivity PGL3 5′UTR ([1]; Table 2): 53-fold
- IC50 [2, 9]: 0.2 µM
- Decrease αsyn(%) SHSY5Y cells ([3]; @ 0.1-1 μM): 20-40 @ 0.1-1%
- Selectivity PrP-5′UTR ([4]; Table 2): 58-fold

SMILES: COc1ccc(/C=C/C(=O)c2cc(F)ccc2OC(=O)c2ccccc2)cc1OC [Compound 14, 2-[(2E)-3-(3,4-dimethoxyphenyl)prop-2-enoyl]-4-fluorophenyl benzoate]
- Selectivity PGL3 5′UTR ([1]; Table 3): 66-fold
- IC50 [2, 10]: 0.194 µM
- Decrease syn(%) SHSY5Y cells ([3]; @ 0.1 µM): 20-50 @ 0.1M %
- Selectivity PrP-5′UTR ([4]; Table 3): Inc.

SMILES: Cc1cc(C)cc(Nc2nc3ccc(C)cc3n3cnnc23)c1 [Compound 4, N-(3,5-dimethylphenyl)-8-methyl-[1,2,4]triazolo[4,3-a]quinoxalin-4-amine]
- Selectivity PGL3 5′UTR ([1]; Table 2): 43-fold
- IC50 [2, 9]: 2.8 µM
- Decrease αsyn(%) SHSY5Y cells ([3]; @ 1 μM): 25-50 @ 1%
- Selectivity PrP-5′UTR ([4]; Table 2): 18-fold

SMILES: COc1cccc(N2CCN(C(=O)c3ccc(C[S+]([O-])c4ccc(C)cc4)o3)CC2)c1 (centres unmarked) [Compound 11, 1-(3-Methoxyphenyl)-4-(5-{[(4-methylphenyl)sulfinyl]methyl}-2-furoyl)piperazine]
- Selectivity PGL3 5′UTR ([1]; Table 3): 58-fold
- IC50 [2, 10]: 0.1 µM
- Decrease syn(%) SHSY5Y cells ([3]; @ 1 µM): 14-28 @ 1M^ %
- Selectivity PrP-5′UTR ([4]; Table 3): 126-fold
- binding to SNCA IRE (fluorescence of sensor R7) [8]: binds strongly

SMILES: CCOC(=O)c1[nH]c(C)c(C(=O)c2cc(F)ccc2F)c1C [Compound 13, Ethyl 4-(2,5-difluorobenzoyl)-3,5-dimethyl-1H-pyrrole-2-carboxylate]
- Selectivity PGL3 5′UTR ([1]; Table 3): 53-fold
- IC50 [2, 10]: 0.2 µM
- Decrease syn(%) SHSY5Y cells ([3]; @ 0.1-1M): 20-40 @ 0.1-1M %
- Selectivity PrP-5′UTR ([4]; Table 3): 58-fold

SMILES: COc1ccc(/C=C/C(=O)c2cc(F)ccc2OC(=O)c2ccccc2)cc1OC [Compound 5, (E)-2-(3-(3,4-dimethoxyphenyl)acryloyl)-4-fluorophenyl benzoate]
- Selectivity PGL3 5′UTR ([1]; Table 2): 66-fold
- IC50 [2, 9]: 0.194 µM
- Decrease αsyn(%) SHSY5Y cells ([3]; @ 0.1 μM): 20-50 @ 0.1%
- Selectivity PrP-5′UTR ([4]; Table 2): Inc.

SMILES: CN(C)c1nc(N)nc(CSc2nnnn2-c2cccc3ccccc23)n1 [Compound 10, N^2,N^2-dimethyl-6-(((1-(naphthalen-1-yl)-1H-tetrazol-5-yl)thio)methyl)-1,3,5-triazine-2,4-diamine]
- Selectivity PGL3 5′UTR ([1]; Table 2): 34-fold
- Selectivity PGL3 5′UTR ([1]; Table 3): 34-fold
- inhibition of α-Synuclein protein expression versus β-Syn, γ-Syn, Ferritin, APP and Prion proteins ([5]; 72 h): selectively inhibit
- α-syn levels (Western blot) [5, 11]: reduced
- Decrease αsyn(%) DA neurons ([6]; @ 1 μM): 60 @ 1 μM %
- Decrease syn(%) DA neurons [6]: 60 @ 1M %
- IC50 [2, 12]: 1.8 to 3.5 µM
- IC50 [2, 13]: 1.8 to 3.5 µM
- Decrease αsyn(%) SHSY5Y cells ([3]; @ 0.1 μM): 19-38 @ 0.1%
- Decrease syn(%) SHSY5Y cells ([3]; @ 0.1 µM): 19-38 @ 0.1M %
- Selectivity PrP-5′UTR ([4]; Table 2): 35-fold
- Selectivity PrP-5′UTR ([4]; Table 3): 35-fold
- Decrease αsyn(%) X3 SNCA neurons [7]: 25%

SMILES: CCC1=Nc2cc(C(=O)NCCCOC)ccc2Sc2ccccc21 [Compound 16, 11-ethyl-N˜8˜-(3-methoxypropyl)dibenzo[b,f][1,4]thiazepine-8-carboxamide]
- Selectivity PGL3 5′UTR ([1]; Table 3): 68-fold
- IC50 [2, 10]: 0.127 µM
- Decrease syn(%) SHSY5Y cells ([3]; @ 1 µM): 30-60 @ 1M^ %
- Selectivity PrP-5′UTR ([4]; Table 3): 127-fold
